The target of experiment [1] is T1, a5β1 integrin mediated adhesion of K562 cells (Homo sapiens, UniProt P05556+P08648).
T1 construct: a5β1 integrin mediated adhesion of K562 cells; host or cells: K562 human erythroleukaemia cells
In words: In vitro cell adhesion assay: adhesion of K562 cells to fibronectin fragment Fn9-10 (crystal violet). The experiment is classed as cell-based. The following applies: K562 cells on Fn9-10 coated plates, 0.2 mM MnCl, 45 minutes; IC50 data; unit inferred. From the text:
The assay determined the ability of compounds to inhibit the a5β1 integrin mediated adhesion of K562 cells to the ligand, a fragment of human fibronectin. The human K562 erythroleukaemia cell line (LGC Promochem, Teddington, Middlesex, UK, Catalogue No. CCL-243) was routinely maintained in RPMI 1640 medium (Sigma-Aldrich Company Ltd, Gillingham, Dorset SP8 4XT, Catalogue No. R0883) containing 10% heat-inactivated foetal calf serum (PAA lab GmbH, Pasching, Austria Catalogue No. PAA-A15-043) and 1% glutamax-1 (Invitrogen Ltd. Paisley, UK Catalogue No. 35050-038) at 37° C. with 5% CO2 at densities between 1×10^5 and 1×10^6 cells/ml.
A DNA fragment encoding the domains 9-10 (amino-acids 1325-1509) of human fibronectin (Swiss-Prot Acession No. P02751) was isolated from cDNA libraries using standard molecular biology and PCR cloning techniques. The cDNA fragment was sub-cloned into a pT7#3.3 expression vector containing a GST-epitope tag (developed at AstraZeneca; Bagnall et al., Protein Expression and Purification, 2003, 27: 1-11), and the fragment termed Fn9-10. Following expression in E. coli, the expressed protein was purified using the GST-tag using standard purification techniques.
For adhesion assay, a 96-well flat bottomed plate (Greiner Bio one ltd., Gloucester GL10 3SX Catalogue No. 655101) was coated overnight at 4° C. with 100 μl of 20 μg/ml Fn9-10 ligand in Dulbecco's PBS (Gibco#14190-94). The plate was then washed twice with 200 μl of PBS and blocked with 100 μl of 3% BSA (SigmaA7888) in PBS for 1 hour at 37° C. The plates were then washed again 3 times with 200 μl of PBS and left empty.
Test compounds were prepared as 10 mM stock solutions in DMSO (Sigma-Aldrich Company Ltd, Gillingham, Dorset SP8 4XT Catalogue No. 154938) and serially diluted with HBSS (Hanks Buffered Salt solution (Gibco Catalogue No. 14170-088)/2% DMSO to give a range of test concentrations at twice required final concentration. Aliquots (50 μl) of each compound dilution were placed into each well of the Fn9-10 coated plates. Each plate also contained control wells: maximum adhesion signal was created using wells containing 50 μl HBSS/2% DMSO, and minimum signal corresponding to no adhesion was created using wells containing 50 μl HBSS/2% DMSO/20 mM EDTA (Sigma Catalogue No. E7889).
The K562 cells were cultured to ˜1×10^6 cells/ml, and each culture suspension pooled. Cells were centrifuged at 1200 rpm for 2 mins, and the pellets washed with HBSS followed by HBSS/50 mM HEPES (Sigma Catalogue No. H0887). Cell pellets were pooled and resuspended in HBSS/0.4 mM manganese chloride/50 mM HEPES (MnCl; Sigma Catalogue No. M1787) to give a final concentration of 4×10^6 cells/ml.
The assay was initiated by the addition of 50 μl of cell suspension into each coated well (200,000 cells/well), thus resulting in final desired compound concentration and a final MnCl concentration of 0.2 mM. The plates were incubated for 45 minutes at 37° C. 5% CO2. […]
After fixation, the ethanol was flicked off to waste and 100 μl of 0.1% Crystal violet stain was added to each well, and incubated at ambient temperature for 15 minutes. […] Finally, 100 μl of deionised water was added to each well and the absorbance was determined at 590 nm on a spectrophotometer. The minimum value was subtracted from all values, and the absorbance signal was plotted against compound concentration to generate IC50 data.

Experiment [2] addresses T2, human α5β1 (Homo sapiens, UniProt P05556+P08648).
T2 construct: human α5β1 purified from placenta; purchased Chemicon CC1055-K; host or cells: human placenta (tissue-purified)
In words: In vitro binding assay: inhibition of α5β1 integrin binding to human fibronectin fragment Fn9-10 (Origen electrochemiluminescence). Conditions: α5β1 integrin binding to biotinylated Fn9-10; IC50 data; unit inferred. The text has this:
The assay determined the ability of compounds to inhibit binding of α5β1 integrin to a cognate ligand, a fragment of human fibronectin. The assay used Origen technology (IGEN International) to measure the compound activity. Briefly, α5β1 integrin was coated onto epoxy-paramagnetic beads (Dynal Biotech UK, Bromborough, Wirral, CH62 3QL, UK, Catalogue No 143.02) and biotinylated-fibronectin ligand was coupled to strepatividin labelled BV-Tag-NHS-Ester (BioVeris Corporation, Witney, Oxfordshire, OX28 4GE, UK, Catalogue No JSF396). The ruthenium-labelled BV-Tag emits a electrochemiluminescence signal upon stimulation which is detected by the Origen reader. Thus, interaction of integrin and ligand causes association of bead and tag, and the resulting electrochemiluminescence signal reflects the level of integrin interaction with fibronectin.
Coated beads were then washed into Assay Buffer (25 mM Hepes, 150 mM NaCl, 1 mM MgCl, 1 mM MnCl, 0.1% Tween, pH7.4) to give a final concentration of 20 µg of α5β1/ml. Immediately prior to the assay, the beads were further diluted ×40 fold in Assay Buffer to give a concentration of 0.5 μg α5β1/ml.
A DNA fragment encoding the domains 9-10 (amino-acids 1325-1509) of human fibronectin (Swiss-Prot Acession No. P02751) was isolated from cDNA libraries using standard molecular biology and PCR cloning techniques. The cDNA fragment was sub-cloned into a pT73.3 expression vector containing a GST-epitope tag (developed at AstraZeneca; Bagnall et al., Protein Expression and Purification, 2003, 27: 1-11). Following expression in E. coli, the expressed protein, termed Fn9-10, was purified using the GST-tag using standard purification techniques. The recombinant Fn9-10 was subsequently biotinylated using a EZ-link Sulfo-NHS-LC-Biotinylation kit (Perbio Science UK Ltd., Cramlington, Northumberland, NE23 1WA, UK, Catalogue No. 21335) and made to give a final concentration of approximately 1 mg/ml. BV-Tag-NHS-Ester was is labelled with streptavidin by incubation at room temperature following manufacturers instructions and buffer-exchanged into PBS to give a concentration of 0.5 mg/ml. Immediately prior to the assay, biotinylated-Fn9-10 and Streptavidin-labelled BV-Tag were diluted in Assay Buffer to give a final concentrations of 0.6 ug/ml and 1.5 ug/ml respectively. The Fn9-10 and BV-Tag solutions were then mixed together in equal volumes and incubated on ice for at least 30 minutes prior to the assay.
Test compounds were prepared as 10 mM stock solutions in DMSO (Sigma-Aldrich Company Ltd, Gillingham, Dorset SP8 4XT Catalogue No. 154938) and serially diluted with 4% DMSO to give a range of test concentrations at ×4 required final concentration. Aliquots (20 μl) of each compound dilution were placed into each well of a 384-well round bottomed polypropylene plate (Matrix Technologies, Wilmslow, Cheshire, SK9 3LP, Catalogue No. 4340 384). Each plate also contained control wells: maximum signal was created using wells containing 20 μl of 4% DMSO, and minimum signal corresponding to no binding was created using wells containing 20 μl of 80 mM EDTA (Sigma Catalogue No. E7889).
For the assay, 20 μl of a5b1-bead suspension and 40 μl of the Fn9-10/BV-Tag preincubated solution were added to each well containing 20 μl of compound or control solution. Assay plates were then incubated at room temperature for a minimum of 6 hours before being analysed on the Origen plate reader. […]

By IC50 is commonly meant the concentration that gives 50% inhibition. High values mean weaker potency in that assay, low ones greater potency in that assay.

T2 sequence (P08648 42-894 limits assumed): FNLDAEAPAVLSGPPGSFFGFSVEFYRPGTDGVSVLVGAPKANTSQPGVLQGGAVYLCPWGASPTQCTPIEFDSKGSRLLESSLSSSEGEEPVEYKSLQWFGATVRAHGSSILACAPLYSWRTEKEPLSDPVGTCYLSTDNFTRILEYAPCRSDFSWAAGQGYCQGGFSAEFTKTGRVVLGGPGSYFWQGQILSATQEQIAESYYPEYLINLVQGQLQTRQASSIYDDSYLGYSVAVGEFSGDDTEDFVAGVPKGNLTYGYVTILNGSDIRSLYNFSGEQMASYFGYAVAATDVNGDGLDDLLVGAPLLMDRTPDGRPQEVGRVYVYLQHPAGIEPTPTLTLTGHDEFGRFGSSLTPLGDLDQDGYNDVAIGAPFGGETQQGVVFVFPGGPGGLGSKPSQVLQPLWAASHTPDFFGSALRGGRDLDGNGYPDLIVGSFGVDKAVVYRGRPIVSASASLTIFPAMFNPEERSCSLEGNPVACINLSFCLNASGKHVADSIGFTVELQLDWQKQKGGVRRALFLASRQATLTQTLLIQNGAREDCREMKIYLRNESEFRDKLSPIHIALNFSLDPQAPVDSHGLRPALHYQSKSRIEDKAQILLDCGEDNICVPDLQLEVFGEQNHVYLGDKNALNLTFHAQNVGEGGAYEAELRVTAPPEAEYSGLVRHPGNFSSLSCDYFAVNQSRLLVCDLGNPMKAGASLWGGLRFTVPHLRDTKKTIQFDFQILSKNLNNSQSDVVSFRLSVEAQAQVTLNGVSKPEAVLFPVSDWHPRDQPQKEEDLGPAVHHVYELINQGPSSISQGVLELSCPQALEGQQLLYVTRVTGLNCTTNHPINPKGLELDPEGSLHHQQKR
T2 sequence (P08648 895-1049 partner limits assumed): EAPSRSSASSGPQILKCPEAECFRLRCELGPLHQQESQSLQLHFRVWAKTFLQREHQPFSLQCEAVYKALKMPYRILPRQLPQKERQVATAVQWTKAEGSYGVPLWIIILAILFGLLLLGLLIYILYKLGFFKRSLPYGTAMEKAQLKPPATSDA
T2 sequence (P05556 21-798): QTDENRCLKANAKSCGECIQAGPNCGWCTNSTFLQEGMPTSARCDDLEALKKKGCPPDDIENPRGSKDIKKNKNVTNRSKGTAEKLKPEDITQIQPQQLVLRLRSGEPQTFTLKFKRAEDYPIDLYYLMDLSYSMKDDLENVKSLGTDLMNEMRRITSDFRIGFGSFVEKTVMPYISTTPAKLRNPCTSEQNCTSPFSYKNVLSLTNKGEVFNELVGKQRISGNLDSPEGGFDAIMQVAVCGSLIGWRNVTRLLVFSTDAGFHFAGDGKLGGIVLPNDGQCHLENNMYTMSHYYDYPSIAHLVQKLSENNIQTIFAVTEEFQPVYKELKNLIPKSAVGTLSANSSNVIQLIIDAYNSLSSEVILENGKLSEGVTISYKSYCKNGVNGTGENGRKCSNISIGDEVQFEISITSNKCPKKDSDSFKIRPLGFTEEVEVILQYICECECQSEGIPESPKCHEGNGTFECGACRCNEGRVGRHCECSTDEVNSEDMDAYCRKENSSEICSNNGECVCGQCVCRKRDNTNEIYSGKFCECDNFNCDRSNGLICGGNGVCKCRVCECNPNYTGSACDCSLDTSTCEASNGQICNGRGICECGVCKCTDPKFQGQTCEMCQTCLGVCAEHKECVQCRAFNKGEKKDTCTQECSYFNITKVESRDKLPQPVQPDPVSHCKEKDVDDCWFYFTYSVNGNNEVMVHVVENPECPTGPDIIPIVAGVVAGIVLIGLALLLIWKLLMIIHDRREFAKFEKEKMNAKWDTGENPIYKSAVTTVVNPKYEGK
T1 sequence (P08648 42-894 limits assumed): as the sequence (P08648 42-894 limits assumed) above
T1 sequence (P08648 895-1049 partner limits assumed): as the sequence (P08648 895-1049 partner limits assumed) above
T1 sequence (P05556 21-798): as the sequence (P05556 21-798) above

On to `CN1CCC(Oc2ccc(C[C@H](NC(=O)c3c(Cl)cccc3Cl)C(=O)O)cc2)CC1` [Example 20, N-(2,6-Dichlorobenzoyl)-O-(1-methylpiperidin-4-yl)-L-tyrosine], for which the figures for the half-maximal inhibitory concentration (IC50) in experiment [1] and in experiment [2] were 2.4 µM and 0.185 µM, respectively.

For the compound `Cc1cc(C(=O)N2CC(Oc3ccc(C[C@H](NC(=O)c4c(Cl)cccc4Cl)C(=O)O)cc3)C2)ccc1F` [Example 48, N-(2,6-dichlorobenzoyl)-O-[1-(4-fluoro-3-methylbenzoyl)azetidin-3-yl]-L-tyrosine], the IC50 is 4 µM in experiment [1] and 0.466 µM in experiment [2].

For `O=C(N[C@@H](Cc1ccc(O[C@H]2CCCN(Cc3cc(F)ccc3F)C2)cc1)C(=O)O)c1c(Cl)cccc1Cl` [Example 76, N-(2,6-dichlorobenzoyl)-O-[(3S)-1-(2,5-difluorobenzyl)piperidin-3-yl]-L-tyrosine], the IC50 in experiment [1] came out at 11.4 µM; in experiment [2] it was 4.1 µM.

Turning to `N#Cc1cccc(CN2CCC(Oc3ccc(C[C@H](NC(=O)c4c(Cl)cccc4Cl)C(=O)O)cc3)CC2)c1` [Example 83, O-[1-(3-cyanobenzyl)piperidin-4-yl]-N-(2,6-dichlorobenzoyl)-L-tyrosine], the half-maximal inhibitory concentration (IC50) in experiment [1] is 6.6 µM; in experiment [2], 1.7 µM.

Take “N-(2,6-Dichlorobenzoyl)-O-[(3R)-pyrrolidin-3-yl]-L-tyrosine [Example 17]”: the IC50 in experiment [1] amounted to 9.3 µM; in experiment [2], 1.2 µM.

The record behind these values is patent US20090203663A1, “CHEMICAL COMPOUNDS” (AstraZeneca AB, priority 2006, published 2009).
